Patent US12605350B2, “Composition for preventing, ameliorating, or treating disease caused by nitration of tyrosine in proteins comprising tyrosine as effective component” (INDUSTRY-ACADEMIC COOPERATION FOUNDATION GYEONGSANG …, priority 2020, dated 2026)
Entries after “also recorded” stand apart in the source; their conditions may differ.

Tests used:
[1] = system: high-fat diet mouse model of type 2 diabetes; test: high-fat diet mouse model of type 2 diabetes: bodyweight, food intake amount, blood glucose; format: in vivo; conditions: HFD+L-Tyr (181 mg of L-tyrosine/kg) compared to HFD, measured every week
Experimental: (§1) Twenty-seven C57BL/6 male mice (3-week old) were acclimated to the breeding condition for 1 week. […] Blood glucose was measured every week.

[2] = system: high-fat diet mouse model of type 2 diabetes; test: glucose tolerance test; format: in vivo; conditions: HFD+L-Tyr vs HFD; 16 hours fasting, glucose 2 g per 1 kg i.p., 30-120 minutes
Experimental: as §1
D-glucose was dissolved in 1×PBS to prepare 40% D-glucose solution. Blood glucose of a mouse, which has been subjected to fasting for 16 hours, was measured, and, for having intraperitoneal injection of glucose in an amount of 2 g per 1 kg bodyweight, the animal was intraperitoneally injected with the glucose solution according to the following Formula (1). Glucose injection amount(μl)=Bodyweight(g)×5 Formula (1)
For example, for a mouse with bodyweight of 45 g, 225 μl of 40% glucose solution were injected. After the intraperitoneal injection of glucose solution, blood glucose was measured at time points of 30, 60, 90 and 120 minutes.

[3] = system: nitrotyrosine protein; test: nitrotyrosine protein in kidney tissues (Western blot), renal ischemia and reperfusion; format: in vivo, mouse; conditions: L-tyrosine 100 mg/kg oral for 4 days, 24 hours after ischemia and reperfusion
Experimental: (§2) C57BL/6 male mouse (23 to 25 g, KOATECH, South Korea) was allowed to have free access to diets and water in sterile breeding room with constant temperature and humidity. The animals were divided into 3 test groups, i.e., 1) Control group (Sham), 2) Renal ischemia having treatment with prepared solvent and induced reperfusion group (CMC+IR), and 3) Renal ischemia having treatment with L-tyrosine and induced reperfusion group (L-Tyr+IR).
(§3) L-Tyrosine (100 mg/kg) was suspended in 0.5% CMC (carboxymethyl cellulose). The animal was orally administered, once a day for 4 days, with L-tyrosine or the prepared solvent CMC. Thirty minutes after the oral administration on Day 4, renal ischemia was caused. Specifically, the animal abdomen was cut and renal pedicles at both sides were clamped using a Muller atraumatic vascular clamp to cause renal ischemia. After 25 minutes of blood ischemia, the clamp was removed followed by reperfusion. The control group (Sham) received the same operational procedures as above except the ischemia using clamp. Twenty-four hours after the reperfusion, the test animal was sacrificed, blood was collected from the heart, and the tissues were harvested.
Kidney tissues were homogenized with RIPA buffer solution. After centrifuge for 15 minutes at 16,000×g, 4° C., supernatant was collected and the protein quantification was carried out by BCA method. […]

[4] = target: T1, glutamine synthetase (GS) (Mus musculus, UniProt P15105); test: in vitro GS activity of PFC tissue lysate treated with nitrogen peroxide (PN) and tyrosine; format: biochemical; conditions: PFC tissue lysate (10 μg), 0.0031 to 0.45 mg/ml tyrosine, nitrogen peroxide (PN) 10 times the tissue lysate
T1 construct: PFC sample was weighed first, and, after lysis of the tissues by using Bullet homogenizer, subjected to centrifuge; from tissue; host or cells: mouse prefrontal cortex (PFC) lysate
Experimental: Each of the blood and PFC sample was obtained from a mouse anesthetized with CO2 gas. Specifically, mouse blood was collected between 9 AM and 11 AM and stored in a K3EDTA-coated vacuum container. Plasma was obtained by centrifuge for 10 minutes at 4° C., 500×g. PFC sample was weighed first, and, after lysis of the tissues by using Bullet homogenizer, subjected to centrifuge for 20 minutes at 4° C., 12,000 rpm. Thus-obtained plasma and tissue lysate were kept at −80° C. until use.
10 μg of the lysate were admixed with […] of GS assay buffer solution (50 mM imidazole-HCl, pH 6.8, 50 mM L-glutamine, 25 mM hydroxylamine, 25 mM sodium arsenate, 2 mM MnCl2 and 0.16 mM ADP), followed by incubation for 1 hour at 37° C.
After the mixing, the reaction was terminated by adding 50 μl of stop buffer solution (90 mM FeCl3, 1.8 N HCl and 1.45% trichloroacetic acid), and then γ-glutamylhydroxamate synthesized from a reaction between glutamine and hydroxylamine as catalyzed by GS was measured at 560 nm using a microplate reader.
Moreover, after PFC (prefrontal cortex) tissue lysate (10 μg) was added and mixed with 0.0031 to 0.45 mg/ml tyrosine, incubated on ice for 10 minutes, and added with nitrogen peroxide (PN), in an amount that is 10 times the tissue lysate, followed by incubation for 10 minutes, in vitro GS activity was examined.

[5] = system: high-fat diet mouse model of type 2 diabetes; test: fat accumulation in tissues, high-fat diet model; format: in vivo
Experimental: as §1
Mouse was anesthetized with avertin, and blood was collected from a heart. After the reaction with EDTA in a vacucontainer, the blood was centrifuged for 15 minutes at 1,500×g, 4° C. to separate plasma. According to heart perfusion with PBS and 4% paraformaldehyde (PFA), tissue fixation was carried out. Then, each tissue was harvested and stored in PFA.

[6] = system: mouse model of stroke using endothelin-1; test: brain infarction (cresyl violet staining) in endothelin-1 stroke model; format: in vivo; conditions: endothelin-1 (2 μg) to cerebral motor cortex, tyrosine 900 mg/kg (feed weight)
Experimental: To de-ionized water, endothelin-1 was added (2 μg/μl), and, after vigorous vortexing, completely dissolved by ultrasonication at 4° C. for about 10 minutes.
The mouse was anesthetized by intraperitoneal injection of avertin as an anesthetic (0.5 ml/25 g of mouse bodyweight). Thereafter, endothelin-1 was injected (2 μg) to the cerebral motor cortex area (with bregma at the center, AP 1.5 mm, ML-1.5 mm, and DV 1.8 mm) by stereotaxic surgery. The injection was made at speed of 0.3 μl per minute. The needle was left for about 5 minutes after completing the injection so that endothelin-1 can be fully absorbed in animal tissues. After suturing the skin, the animal was allowed to recover in the original cage.
Perfusion with PBS and PFA was carried out, via animal heart and the brain was removed and post-fixed in PFA for 15 hours or longer. After washing 3 times for 10 minutes with PBS, brain tissue specimen with thickness of 40 μm was obtained using a vibratome. Then, four specimens collected from the area injected with endothelin-1 were fixed on a silane-coated glass slide. […] The stained specimen sample was observed under an optical microscope, and, with the stored image, the area showing brain infarction was calculated by using Image J analysis program.

[7] = system: acute renal failure caused by kidney ischemia or reperfusion injury; test: ROS/RNS amount in mitochondria, renal ischemia and reperfusion; format: in vivo, mouse; conditions: L-tyrosine 100 mg/kg oral for 4 days, IR
Experimental: as §2, §3

[8] = HFD animal model, L-tyrosine diet (181 mg/kg)

T1 sequence (P15105 2-373 limits assumed): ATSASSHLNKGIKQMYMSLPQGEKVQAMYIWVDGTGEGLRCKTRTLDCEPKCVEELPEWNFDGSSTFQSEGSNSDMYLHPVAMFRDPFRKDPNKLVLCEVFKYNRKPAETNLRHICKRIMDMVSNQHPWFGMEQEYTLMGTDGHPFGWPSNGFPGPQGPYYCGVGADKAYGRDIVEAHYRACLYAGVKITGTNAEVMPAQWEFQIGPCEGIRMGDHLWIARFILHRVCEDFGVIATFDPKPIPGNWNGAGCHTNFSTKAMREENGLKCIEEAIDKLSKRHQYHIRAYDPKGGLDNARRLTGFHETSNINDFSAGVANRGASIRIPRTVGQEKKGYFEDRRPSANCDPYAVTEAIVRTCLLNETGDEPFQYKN

Structure (SMILES)	blood glucose [1]	blood glucose ([1]; listed as L-Tyr)	blood glucose, glucose tolerance test [2]	amount of nitrotyrosine protein in kidney tissues [3]	in vitro GS activity [4]	amount of fat tissues around kidney [5, 8]	fat accumulation in liver [5, 8]	tissue weight (fat accumulation in tissues) ([5]; HFD+Tyr compared to HFD)	infarct volume [6]	ROS/RNS amount in mitochondria [7]
N[C@@H](Cc1ccc(O)cc1)C(=O)O [L-tyrosine]	statistically significant decrease in blood glucose amount	statistically significant decrease	statistically significant decrease in blood glucose amount	significantly reduced						
N[C@@H](Cc1ccc(O)cc1)C(=O)O [tyrosine]					statistically significant increase in GS activity; also recorded: higher GS activity is obtained in accordance with an increase in the tyrosine concentration	reduced to a statistically different level	fat accumulation is reduced all over the liver	statistically significant decrease in tissue weight	infarct volume is reduced	suppressed
